Data reported in paper PMC12566046, “Arylpiperazinyl-Benzocycloheptapyrrole-Carboxamides Endowed with Dual Anticancer and Antiviral Activities” (Molecules, 2025).
Like-named read-outs stand apart in the source and are kept apart here.

Columns and labels:
NCI-60 cell line panel = test: NCI-60 single-dose assay, whole panel; format: cell-based, human; settings: summary over the panel
From the text: (§1) We first evaluated the cytotoxic activity of tricyclic-pyrrole carboxamides 1–20 using the NCI-60 cell line panel, representing nine different human cancers: leukemia, melanoma, and cancers of the lung, colon, central nervous system (CNS), ovary, kidney, prostate, and breast (the one-dose graph for compounds 1–20 is reported in Supplementary Materials, Figures S43–S62). Compounds 1, 5, 10, 11, 17, and 20 satisfied pre-determined threshold inhibition criteria in a minimum number of cell lines; therefore, they were also tested in the full five-dose assay (Figures S63–S68 in the Supplementary Materials).

[1] = system: ZIKV, strain Brazil/2016/INMI1; test: ZIKV viral yield reduction assay on Huh-7 cells; format: cell-based, Zika virus; settings: for EC50: Zika virus
Description: We developed a protocol to screen the potential antiviral activity of compounds 1–20 against ZIKV (strain Brazil) on Huh-7 cells, against an H1N1 IAV strain (PR/8/1934) on MDCK cells, and against SARS-CoV-2 (strain Milano) on Vero-TMPRSS. Each compound was tested in duplicate at concentrations of 50 μM, 5 μM, and 0.5 μM. Treatment was applied immediately after infection, and at 24–48 h post-infection, supernatants were collected to assess viral yield, determined as PFU/mL for ZIKV and SARS-CoV-2 or as TCID50/mL for IAV. The test allowed us to evaluate both the antiviral action and the cytotoxicity of each compound, comparing them with reference compounds, such as sofosbuvir for ZIKV and EIDD-1931 for IAV and SARS-CoV-2 (Supplementary Materials, Figures S87–S89).
Viral yield reduction assays for ZIKV and SARS-CoV-2 were performed as previously described by Plicanti. Briefly, 1 × 10^4 Huh-7 cells/well and 1.2 × 10^4 VERO TMPRSS cells/well were infected with ZIKV (MOI 1) or SARS-CoV-2 (MOI 0.05) in a primary 96-well plate for 2 h at 37 °C, 5% CO2. […] Supernatants were collected after 48 h (Huh-7) or 24 h (VERO TMPRSS), diluted 3-fold, and added onto VERO E6 or VERO TMPRSS monolayers, respectively. After 2 h at 37 °C, the inoculum was replaced with 0.75% carboxymethyl cellulose (Merck®, Darmstadt, Germany) in DMEM 2% FBS. After 48–72 h, cells were then fixed with 4% buffered formalin solution (Merck®, Darmstadt, Germany) and stained with 1% crystal violet (Merck®, Darmstadt, Germany). Titres and percentage of inhibition were calculated as follows:
PFU/mL = number of plaques*3^n/vol infection, where n is the dilution where plaques were counted:% inhibition = 100 × (1 − Titre-compound/Titre-untreated control) where Titre-compound and Titre-untreated control are the titres (PFU/mL) obtained on cells treated with compound or DMSO, respectively.
SI was obtained by dividing CC50 by EC50 for each drug/virus/cell line. Compounds with SI values ≥ 10 were active in vitro.

[2] = Cytotoxicity on uninfected Huh-7 cells (WST-8, crystal violet); settings: human, uninfected Huh-7 cells
in vitro [3] = settings: African green monkey
[4] = system: MCF-7 (breast cancer cell line); test: NCI-60 single-dose assay; format: cell-based, human; settings: Homo sapiens, MCF7, read-out: growth inhibition (GI%) and cytotoxicity (negative values), MCF-7, 10^−5 M
From the text: as §1

[5] = system: SARS-CoV-2 VR PV10734 (strain Milano); test: microbe, parasite or virus in culture; format: cell-based
in vitro [6] = settings: dog
[7] = system: HCT-116 (colon cancer cell line); test: NCI-60 single-dose assay; format: cell-based, human; settings: Homo sapiens, HCT-116, read-out: growth inhibition (GI%) and cytotoxicity (negative values)
From the text: as §1

[8] = system: SK-MEL-5 (melanoma cell line); test: NCI-60 single-dose assay; format: cell-based, human; settings: Homo sapiens, SK-MEL-5, read-out: growth inhibition (GI%) and cytotoxicity (negative values)
From the text: as §1

[9] = system: HCT-15 (colon cancer cell line); test: NCI-60 single-dose assay; format: cell-based, human; settings: Homo sapiens, HCT-15, read-out: growth inhibition (GI%) and cytotoxicity (negative values)
From the text: as §1

[10] = system: COLO 205 (colon cancer cell line); test: NCI-60 single-dose assay; format: cell-based, human; settings: Homo sapiens, COLO 205, read-out: growth inhibition (GI%) and cytotoxicity (negative values)
From the text: as §1

[11] = system: MOLT-4 (leukemia cell line); test: NCI-60 single-dose assay; format: cell-based, human; settings: Homo sapiens, MOLT-4, read-out: growth inhibition (GI%) and cytotoxicity (negative values)
From the text: as §1

[12] = system: SW-620 (colon cancer cell line); test: NCI-60 single-dose assay; format: cell-based, human; settings: Homo sapiens, SW-620, read-out: growth inhibition (GI%) and cytotoxicity (negative values)
From the text: as §1

[13] = system: RPMI-8226 (leukemia cell line); test: NCI-60 single-dose assay; format: cell-based, human; settings: Homo sapiens, RPMI-8226, read-out: growth inhibition (GI%) and cytotoxicity (negative values)
From the text: as §1

[14] = system: NCI-H460 (non-small cell lung cancer cell line); test: NCI-60 single-dose assay; format: cell-based, human; settings: Homo sapiens, NCI-H460, read-out: growth inhibition (GI%) and cytotoxicity (negative values)
From the text: as §1

[15] = system: HT29 (colon cancer cell line); test: NCI-60 single-dose assay; format: cell-based, human; settings: Homo sapiens, HT-29, read-out: growth inhibition (GI%) and cytotoxicity (negative values)
From the text: as §1

SR (leukemia cell line) = test: NCI-60 single-dose assay; format: cell-based, human; settings: Homo sapiens, read-out: growth inhibition (GI%) and cytotoxicity (negative values)
From the text: as §1

M14 (melanoma cell line) = test: NCI-60 single-dose assay; format: cell-based, human; settings: Homo sapiens, M14, read-out: growth inhibition (GI%) and cytotoxicity (negative values)
From the text: as §1

[16] = system: CCRF-CEM (leukemia cell line); test: NCI-60 single-dose assay; format: cell-based, human; settings: Homo sapiens, read-out: growth inhibition (GI%) and cytotoxicity (negative values)
From the text: as §1

[17] = system: KM12 (colon cancer cell line); test: NCI-60 single-dose assay; format: cell-based, human; settings: Homo sapiens, KM12, read-out: growth inhibition (GI%) and cytotoxicity (negative values)
From the text: as §1

[18] = system: HL-60(TB) (leukemia cell line); test: NCI-60 single-dose assay; format: cell-based, human; settings: Homo sapiens, HL-60, read-out: growth inhibition (GI%) and cytotoxicity (negative values)
From the text: as §1

[19] = system: HCC-2998 (colon cancer cell line); test: NCI-60 single-dose assay; format: cell-based, human; settings: Homo sapiens, HCC 2998, read-out: growth inhibition (GI%) and cytotoxicity (negative values)
From the text: as §1

[20] = system: K-562 (leukemia cell line); test: NCI-60 single-dose assay; format: cell-based; settings: Homo sapiens, K562, read-out: growth inhibition (GI%) and cytotoxicity (negative values)
From the text: as §1

[21] = system: IAV strain A/PR/8/34 (H1N1)
MDCK cells = test: Cytotoxicity on uninfected MDCK cells (WST-8, crystal violet)
in vitro [22] = settings: human
[23] = preliminary screening (50, 5, 0.5 μM), Huh-7, read-out: ZIKV/Huh‐7 EC50
[24] = Severe acute respiratory syndrome coronavirus 2, preliminary screening (50, 5, 0.5 μM), Vero TMPRSS, read-out: SARS‐CoV‐2/Vero TMPRSS EC50
[25] = Huh-7, read-out: ZIKV/Huh‐7 EC50

SMILES	growth inhibition (GI%) reached against cancer cell lines of the NCI-60 panel (NCI-60 cell line panel) [%]	EC50 [1, 23] [µM]	CC50 at 48 h [2] [µM]	CC50 at 24 h (in vitro [3]) [µM]	EC50 [5, 24] [µM]	CC50 (in vitro [6]) [µM]	EC50 [1, 25] [µM]	inhibition at 10 µM [7] [%]	inhibition at 10 µM [8] [%]	inhibition at 10 µM [20] [%]	further results
O=C(NCCN1CCN(c2ccccc2)CC1)c1[nH]c2c(c1Cl)CCCc1ccccc1-2 [Compound 2, 3-Chloro-N-(2-(4-phenylpiperazin-1-yl)ethyl)-1,4,5,6-tetrahydrobenzo[6,7]cyclohepta[1,2-b]pyrrole-2-carboxamide]	< 60	43.9	< 50								
O=C(NCCN1CCN(c2ccc(Cl)cc2)CC1)c1[nH]c2c(c1Cl)CCCc1ccccc1-2 [Compound 3]	< 60	3.24	62.6	143							
O=C(NCCN1CCN(c2ccccc2Cl)CC1)c1[nH]c2c(c1Cl)CCCc1ccccc1-2 [Compound 4]			59.9	57.9	42.5	14.7	4.39				inhibition at 10 µM [4]: 60%
COc1cccc(N2CCN(CCNC(=O)c3[nH]c4c(c3Cl)CCCc3ccccc3-4)CC2)c1 [Compound 6]			53.5	121		66	3.24	64			
CCOc1ccccc1N1CCN(CCNC(=O)c2[nH]c3c(c2Cl)CCCc2ccccc2-3)CC1 [Compound 7]			50.7	38.5	37.3	5.6	3.82	76.1	77.7	82.6	inhibition at 10 µM [9]: 82.1%; inhibition at 10 µM [10]: 88.8%; inhibition at 10 µM [11]: 66.5%; inhibition at 10 µM [12]: < 60%; inhibition at 10 µM [13]: 63.4%; inhibition at 10 µM [14]: 60.8%; inhibition at 10 µM [15]: 72.7%; inhibition at 10 µM (SR (leukemia cell line)): 70%; inhibition at 10 µM (M14 (melanoma cell line)): 88.6%; inhibition at 10 µM [16]: < 60%; inhibition at 10 µM [17]: < 60%; inhibition at 10 µM [18]: < 60%; inhibition at 10 µM [19]: < 60%
N#Cc1ccccc1N1CCN(CCNC(=O)c2[nH]c3c(c2Cl)CCCc2ccccc2-3)CC1 [Compound 8, 3-Chloro-N-(2-(4-(2-cyanophenyl)piperazin-1-yl)ethyl)-1,4,5,6-tetrahydrobenzo[6,7]cyclohepta[1,2-b]pyrrole-2-carboxamide]		2.87	50.6	67.5	58.4	119			75.3	62.4	
O=C(NCCN1CCN(c2ccc(Cl)c(Cl)c2)CC1)c1[nH]c2c(c1Cl)CCCc1ccccc1-2 [Compound 9]	< 60	3.24	65.5	67.7							
COc1cccc(N2CCN(CCNC(=O)c3c(Cl)[nH]c4c3CCCc3ccccc3-4)CC2)c1 [Compound 16]				50.2		42.9		< 60	88.6	77.6	inhibition at 10 µM [9]: < 60%; inhibition at 10 µM [10]: < 60%; inhibition at 10 µM [11]: < 60%; inhibition at 10 µM [12]: < 60%; inhibition at 10 µM [13]: 60%; inhibition at 10 µM [15]: 74.9%; inhibition at 10 µM (SR (leukemia cell line)): 73.6%; inhibition at 10 µM [16]: < 60%; inhibition at 10 µM [17]: < 60%; inhibition at 10 µM [4]: 73%; inhibition at 10 µM [18]: < 60%; inhibition at 10 µM [19]: < 60%
O=c1nc(NO)ccn1[C@@H]1O[C@H](CO)[C@@H](O)[C@H]1O [EIDD-1931, reference compound]											EC50 ([21]; IAV, MDCK cells, 48 h, full dose-response): 0.39 µM; IAV/MDCK SI ([21]; preliminary screening): < 24.15; EC50 ([21]; read-out: IAV/MDCK EC50, preliminary screening (50, 5, 0.5 μM), MDCK): 2.07 µM; CC50 (MDCK cells; MDCK cells, 48 h, full dose-response): 138 µM; CC50 (MDCK cells; read-out: IAV/MDCK CC50, preliminary screening (50, 5, 0.5 μM), MDCK): < 50 µM; EC50 ([5]; SARS-CoV-2, VERO TMPRSS cells, 24 h, full dose-response, read-out: EC50): 0.05 µM; EC50 ([5]; preliminary screening (50, 5, 0.5 μM), Vero TMPRSS, read-out: SARS‐CoV‐2/Vero TMPRSS EC50): 0.11 µM; CC50 (Vero TMPRSS cells; VERO TMPRSS cells, 24 h, full dose-response): 22.2 µM; CC50 (Vero TMPRSS cells; read-out: SARS‐CoV‐2/Vero TMPRSS CC50, preliminary screening (50, 5, 0.5 μM), Vero TMPRSS): 13.4 µM
CC(C)OC(=O)[C@H](C)N[P@](=O)(OC[C@H]1O[C@@H](n2ccc(=O)[nH]c2=O)[C@](C)(F)[C@@H]1O)Oc1ccccc1 [sofosbuvir, reference compound]		2.07	300								selectivity index (SI) ([1]; ZIKV, Huh-7 cells, CC50/EC50): 178.32; EC50 ([1]; ZIKV, Huh-7 cells, 48 h, full dose-response, read-out: EC50): 1.47 µM; CC50 (in vitro [22]): 262 µM
